Like-named read-outs stand apart in the source and are kept apart here.
Key:
BcII = BcII (Bacillus cereus, UniProt P04190); assay: FC5 fluorogenic metallo-β-lactamase inhibition assay, BcII; type: biochemical; settings: FC5 substrate
Excerpt: (§1) To investigate the extent to which cyclic boronates inhibit class C β-lactamases as well as the important class A ESBL and class D carbapenemase targets, we used a fluorogenic assay ([22]) to screen the cyclic boronates, which we have found to inhibit other β-lactamases ([21]), against them. The β-lactamases used for screening included TEM-1 and CTX-M-15 (class A), the metallo-β-lactamase (MBL) from Bacillus cereus (BcII), Verona integron-encoded metallo-β-lactamase 1 (VIM-1) (class B), AmpC from P. aeruginosa (class C), and OXA-23 and OXA-48 (class D), collectively representing all classes of β-lactamase.
(§2) We also screened the cyclic boronates against the model MBL, BcII, and VIM-1 using the FC5-based fluorogenic assay ([22]).
(§3) Inhibition assays were carried out using FC5 as a fluorogenic reporter substrate ([22]). Enzyme concentrations and buffers were the same as those employed in steady-state kinetic studies (see Table S2 in the supplemental material). […] The concentration of FC5 employed was 10 μM for TEM-1 and 5 μM for all other enzymes. […] Data at 0 min of incubation were obtained by addition of enzyme to a premixed solution of inhibitor and substrate. Residual enzyme activity was determined for a range of inhibitor concentrations. Nonlinear regression fitting of IC50 curves was carried out using a three-parameter dose-response curve in GraphPad Prism. Errors in IC50 are expressed as [σ(log IC50)/log IC50)] × IC50.
(§4) 45 Steady-state kinetics studies used a Pherastar FS microplate reader with UV-STAR® 96-well,
(§5) 47 black, µclear® plates (Greiner Bio-One) for FC5 (1). […]
(§6) 51 1 µM ZnSO4, 0.01% Triton X-100 for MBL assays. Reaction progress was monitored at 298 K
(§7) 53 intensity (λex = 380 nm, λem = 480 nm) for FC5 (1). Suitable enzyme concentrations for
(§8) 54 kinetic analysis were determined by monitoring changes in absorbance/fluorescence for
(§9) 55 enzyme concentrations between 20 nM and 20 pM. […]

VIM-1 = target: T1, VIM-1 (Pseudomonas aeruginosa, UniProt A0A0F7KYQ8); assay: FC5 fluorogenic metallo-β-lactamase inhibition assay, VIM-1; type: biochemical; settings: pH 7.5, FC5 substrate, read-out: IC50, μM (mean ± SD) for VIM-1, pH 7.5
T1 construct: His tag (3C-cleavable) (C, cleaved yes); made in house
Excerpt: as §1, §2, §3, §4, §5, §6, §7, §8, §9

CTX-M-15 [1] = target: T2, CTX-M-15 (Escherichia coli, UniProt Q9EXV5); type: biochemical, E. coli; settings: CTX-M-15-catalysed hydrolysis of the substrate
T2 construct: hexahistidine (pOPINF, 3C-cleavable) (N, cleaved yes); made in house; host or cells: E. coli BL21(DE3)
T2 sequence (Q9EXV5 entry or part of it): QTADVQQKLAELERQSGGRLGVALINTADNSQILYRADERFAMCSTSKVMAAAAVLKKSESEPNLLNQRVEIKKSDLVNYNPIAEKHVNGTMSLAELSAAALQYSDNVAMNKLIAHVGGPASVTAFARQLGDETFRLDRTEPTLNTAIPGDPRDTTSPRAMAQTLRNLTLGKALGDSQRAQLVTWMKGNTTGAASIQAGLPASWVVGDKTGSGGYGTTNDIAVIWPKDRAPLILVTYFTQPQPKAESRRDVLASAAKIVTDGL
Method: as §4
(§10) 47 black, µclear® plates (Greiner Bio-One) for FC5 (1). Buffers employed were 100 mM
(§11) 48 phosphate buffer pH 7.5, 0.01% (v/v) Triton X-100 for TEM-1, CTX-M-15 and AmpC, 100 mM
(§12) 49 phosphate buffer pH 7.5, 50 mM sodium bicarbonate, 0.01% Triton X-100 for OXA-23 and
as §6, §7, §8
(§13) 55 enzyme concentrations between 20 nM and 20 pM.
(§14) Kinetic constants were determined using the initial rate of hydrolysis with the
(§15) 57 reaction initiated through the addition of enzyme to pre-prepared substrate concentrations.
(§16) 58 Substrate concentrations ranged between 400 µM and 0.4 µM. The Michaelis-Menten
(§17) 59 equation was fitted to data by non-linear regression using GraphPad Prism software to
(§18) 60 calculate the Michaelis-Menten constant and the limiting rate (2).

AmpC = target: T3, AmpC (Pseudomonas aeruginosa, UniProt P24735); type: biochemical; settings: AmpC-catalysed hydrolysis of the substrate
T3 construct: hexahistidine (pOPINF, 3C-cleavable) (N, cleaved yes); made in house; host or cells: E. coli BL21(DE3)
T3 sequence (P24735 27-397): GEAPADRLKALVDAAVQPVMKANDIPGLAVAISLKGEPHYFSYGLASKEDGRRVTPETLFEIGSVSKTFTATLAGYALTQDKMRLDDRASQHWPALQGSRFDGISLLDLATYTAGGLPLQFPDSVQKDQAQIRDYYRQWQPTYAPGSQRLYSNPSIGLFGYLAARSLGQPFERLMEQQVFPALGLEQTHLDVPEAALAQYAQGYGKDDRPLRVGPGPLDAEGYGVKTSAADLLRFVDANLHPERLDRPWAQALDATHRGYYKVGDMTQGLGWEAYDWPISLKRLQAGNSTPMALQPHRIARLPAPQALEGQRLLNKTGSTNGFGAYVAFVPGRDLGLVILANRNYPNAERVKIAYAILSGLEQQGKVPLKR
Method: as §4, §10, §11, §12, §6, §7, §8, §13, §14, §15, §16, §17, §18

OXA-23 [2] = target: T4, OXA-23 (Acinetobacter baumannii, UniProt Q9L4P2); type: biochemical; settings: OXA-23-catalysed hydrolysis of the substrate
T4 construct: hexahistidine (pOPINF, 3C-cleavable) (N, cleaved yes); made in house; host or cells: E. coli BL21(DE3)
T4 sequence (Q9L4P2 18-273): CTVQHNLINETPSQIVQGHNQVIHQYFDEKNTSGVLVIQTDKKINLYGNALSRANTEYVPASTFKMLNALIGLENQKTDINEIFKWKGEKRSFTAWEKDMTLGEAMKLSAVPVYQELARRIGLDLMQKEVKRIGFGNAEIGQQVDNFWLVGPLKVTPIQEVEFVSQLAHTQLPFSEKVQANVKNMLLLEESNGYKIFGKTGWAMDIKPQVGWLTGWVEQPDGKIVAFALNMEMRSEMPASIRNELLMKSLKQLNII
Method: as §4, §10, §11, §12, §6, §7, §8, §13, §14, §15, §16, §17, §18

OXA-48 [3] = target: T5, OXA-48 (Klebsiella pneumoniae, UniProt Q6XEC0); type: biochemical; settings: OXA-48-catalysed hydrolysis of the substrate
T5 construct: hexahistidine (pOPINF, 3C-cleavable) (N, cleaved yes); made in house; host or cells: E. coli BL21(DE3)
T5 sequence (Q6XEC0 23-265 limits assumed): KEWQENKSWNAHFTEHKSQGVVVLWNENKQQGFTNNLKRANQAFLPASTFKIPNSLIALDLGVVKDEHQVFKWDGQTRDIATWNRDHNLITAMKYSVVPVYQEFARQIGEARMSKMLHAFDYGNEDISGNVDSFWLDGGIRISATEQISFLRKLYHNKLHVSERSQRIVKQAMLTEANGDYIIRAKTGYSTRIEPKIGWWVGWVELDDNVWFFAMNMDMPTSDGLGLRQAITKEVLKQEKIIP
Method: as §4, §10, §11, §12, §6, §7, §8, §13, §14, §15, §16, §17, §18

CTX-M-15 [4] = target: T2, CTX-M-15; assay: FC5 fluorogenic β-lactamase inhibition assay, CTX-M-15; type: biochemical; settings: FC5 substrate
Excerpt: as §1, §3, §4, §10, §11, §12, §6, §7, §8, §13, §14, §15, §16, §17, §18

AmpC from P. aeruginosa = target: T6, AmpC from P. aeruginosa (Pseudomonas aeruginosa, UniProt P24735); assay: FC5 fluorogenic β-lactamase inhibition assay, AmpC; type: biochemical; settings: IC50, nM (mean ± SD) for AmpC, FC5 substrate
T6 construct: hexahistidine (pOPINF, 3C-cleavable) (N, cleaved yes); made in house; host or cells: E. coli BL21(DE3)
T6 sequence (P24735 27-397): as the sequence (P24735 27-397) above
Excerpt: as §1, §3, §4, §10, §11, §12, §6, §7, §8, §13, §14, §15, §16, §17, §18

OXA-23 [5] = target: T4, OXA-23; assay: FC5 fluorogenic β-lactamase inhibition assay, OXA-23; type: biochemical
Excerpt: as §1, §3, §4, §10, §11, §12, §6, §7, §8, §13, §14, §15, §16, §17, §18

OXA-48 [6] = target: T5, OXA-48; assay: FC5 fluorogenic β-lactamase inhibition assay, OXA-48; type: biochemical
Excerpt: as §1, §3, §4, §10, §11, §12, §6, §7, §8, §13, §14, §15, §16, §17, §18

Chain of BcII (P04190 31-257): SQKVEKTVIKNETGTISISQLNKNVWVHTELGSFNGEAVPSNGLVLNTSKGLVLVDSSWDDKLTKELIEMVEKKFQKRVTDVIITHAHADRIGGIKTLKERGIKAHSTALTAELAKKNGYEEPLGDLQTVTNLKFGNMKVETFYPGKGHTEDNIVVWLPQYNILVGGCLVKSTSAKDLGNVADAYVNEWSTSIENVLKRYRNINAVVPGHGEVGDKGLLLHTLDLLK

## O=C(O)C(S)c1ccccc1 (racemic) [(±)-Thiomandelic acid, thiomandelic acid]
BcII; pH 6.5, preincubation 0 min, read-out: IC50, μM (mean ± SD) for BcII, pH 6.5
  IC50: 0.27 ± 0.06 µM
BcII; pH 6.5, preincubation 10 min, read-out: IC50, μM (mean ± SD) for BcII, pH 6.5
  IC50: 0.9 ± 0.1 µM
BcII; pH 6.5, preincubation 30 min, read-out: IC50, μM (mean ± SD) for BcII, pH 6.5
  IC50: 0.5 ± 0.1 µM
BcII; pH 6.5, preincubation 60 min, read-out: IC50, μM (mean ± SD) for BcII, pH 6.5
  IC50: 2 ± 1 µM
BcII; pH 6.5, preincubation 360 min, read-out: IC50, μM (mean ± SD) for BcII, pH 6.5
  IC50: 2 ± 1 µM
BcII; pH 7.5, preincubation 0 min, read-out: IC50, μM (mean ± SD) for BcII, pH 7.5
  IC50: 0.3 ± 0.03 µM
BcII; pH 7.5, preincubation 10 min, read-out: IC50, μM (mean ± SD) for BcII, pH 7.5
  IC50: 0.39 ± 0.05 µM
BcII; pH 7.5, preincubation 30 min, read-out: IC50, μM (mean ± SD) for BcII, pH 7.5
  IC50: 0.33 ± 0.04 µM
BcII; pH 7.5, preincubation 60 min, read-out: IC50, μM (mean ± SD) for BcII, pH 7.5
  IC50: 0.5 ± 0.2 µM
BcII; pH 7.5, preincubation 360 min, read-out: IC50, μM (mean ± SD) for BcII, pH 7.5
  IC50: 2 ± 1 µM
VIM-1; preincubation 0 min
  IC50: 0.38 ± 0.03 µM
VIM-1; preincubation 10 min
  IC50: 0.45 ± 0.02 µM
VIM-1; preincubation 30 min
  IC50: 0.8 ± 0.9 µM
VIM-1; preincubation 60 min
  IC50: 1.4 ± 0.9 µM
VIM-1; preincubation 360 min
  IC50: 2 ± 1 µM

## O=C(Cc1ccccc1)N[C@@H]1C(=O)N2C(C(=O)O)=C(COc3ccc4ccc(=O)oc4c3)CS(=O)(=O)[C@H]12 [FC5]
CTX-M-15 [1]
  Km: 170 ± 20 µM
  kcat: 1100 ± 100 s⁻¹
AmpC
  Km: 600 ± 220 µM
  kcat: 500 ± 160 s⁻¹
OXA-23 [2]
  Km: 500 ± 130 µM
  kcat: 38 ± 7 s⁻¹
OXA-48 [3]
  Km: 420 ± 50 µM
  kcat: 28 ± 2 s⁻¹

## CC1(C)[C@H](C(=O)O)N2C(=O)C[C@H]2S1(=O)=O [Sulbactam, sulbactam]
CTX-M-15 [4]; IC50, nM (mean ± SD) for CTX-M-15, preincubation 0 min
  IC50: 44 ± 1 nM
CTX-M-15 [4]; IC50, nM (mean ± SD) for CTX-M-15, preincubation 10 min
  IC50: 29 ± 1 nM
CTX-M-15 [4]; IC50, nM (mean ± SD) for CTX-M-15, preincubation 30 min
  IC50: 28 ± 7 nM
CTX-M-15 [4]; IC50, nM (mean ± SD) for CTX-M-15, preincubation 60 min
  IC50: 32 ± 0.3 nM
CTX-M-15 [4]; IC50, nM (mean ± SD) for CTX-M-15, preincubation 360 min
  IC50: 16.6 ± 0.1 nM
AmpC from P. aeruginosa; preincubation 0 min
  IC50: > 200000 nM
AmpC from P. aeruginosa; preincubation 10 min
  IC50: 42000 nM
AmpC from P. aeruginosa; preincubation 30 min
  IC50: 8600 nM
AmpC from P. aeruginosa; preincubation 60 min
  IC50: 4400 nM
AmpC from P. aeruginosa; preincubation 360 min
  IC50: 1000 nM
OXA-23 [5]
  IC50: > 200000 nM
OXA-23 [5]; read-out: IC50, nM (mean ± SD) for OXA-23, preincubation 10 min, FC5 substrate
  IC50: > 200000 nM
OXA-23 [5]; read-out: IC50, nM (mean ± SD) for OXA-23, preincubation 30 min, FC5 substrate
  IC50: > 200000 nM
OXA-23 [5]; read-out: IC50, nM (mean ± SD) for OXA-23, preincubation 60 min, FC5 substrate
  IC50: > 200000 nM
OXA-23 [5]; read-out: IC50, nM (mean ± SD) for OXA-23, preincubation 360 min, FC5 substrate
  IC50: > 200000 nM
OXA-48 [6]
  IC50: > 200000 nM
OXA-48 [6]; read-out: IC50, nM (mean ± SD) for OXA-48, preincubation 10 min, FC5 substrate
  IC50: > 200000 nM
OXA-48 [6]; read-out: IC50, nM (mean ± SD) for OXA-48, preincubation 30 min, FC5 substrate
  IC50: > 200000 nM
OXA-48 [6]; read-out: IC50, nM (mean ± SD) for OXA-48, preincubation 60 min, FC5 substrate
  IC50: > 200000 nM
OXA-48 [6]; read-out: IC50, nM (mean ± SD) for OXA-48, preincubation 360 min, FC5 substrate
  IC50: > 200000 nM
